Laboratory results from US9072675B2, “Non-irritating benzoyl peroxide” (Essential Ingredients, Inc., priority 2010, dated 2015).

Test system: skin of the infrascapular regions of the back
Test: Cumulative irritation patch test (12 days, semi-occlusive patches)
Conditions: 25 subjects, 24 hour semi-occlusive patches over 12 days, daily score capped at 3; maximum 900
Protocol: Twenty-five subjects ages 20-65 were requested to bathe or wash as usual before arrival at the facility. Qualified subjects were then prepared for patch application by having the test sites wiped with alcohol and air-dried. […] Patches were applied for approximately a 24 hour period, then removed and discarded by the subject approximately two hours prior to grading. All induction patches were applied to the same sites unless the degree of reaction (cumulative grade 3) to a material or the adhesive necessitated removal. The skin adjacent to the patches was marked using a surgical marker or other suitable marking pen. Prior to each reapplication, the test sites were evaluated. At the final visit, no patches were applied and the patch sites were graded. Skin responses were evaluated according to the following scale by a technical associate of AMA Laboratories, Inc. (scorer) trained in the evaluation of skin using consistent adequate lighting from a 60-watt incandescent blue day light bulb to illuminate the patch area. All reasonable attempts were made to ensure that the same individual did all of the scoring of reactions to the test articles during the course of the study, and was blinded to the treatment assignments and any previous scores. […]

## CCCCCCCCCCCCOS(=O)(=O)[O-].[Na+] [Sodium Lauryl Sulfate]
  total cumulative irritancy score: 78
